In patent publication US9850283B2, “Macrocyclic inhibitors of the PD-1/PD-L1 and CD80(B7-1)/PD-L1 protein/protein interactions” (BRISTOL-MYERS SQUIBB COMPANY, priority 2013, dated 2017):
pIC50: −log10 of the molar value. Like-named read-outs stand apart in the source and are kept apart here. Starred links: 1 amine or outer side, 2 acyl side, 3 side chain; linkers in the order of their positions; H or OH if unused. Positions of bridges follow the written chain, without caps; N, C: chain ends. Non-standard residues stand in square brackets, D forms with d. Residues, ends and D or L forms follow the SMILES beside them. ξ: configuration not given here. Ala(benzothiazol-2-yl) = N[C@@H](Cc1nc2ccccc2s1)C(=O)O; X10 = O=C([C@H](Cc1ccc(F)c(Cl)c1)N[*:1])[*:2]; Phe(3,5-F2) = N[C@@H](Cc1cc(F)cc(F)c1)C(=O)O; Phe(4-CH2NH2) = NCc1ccc(C[C@H](N)C(=O)O)cc1; Phe(3-CN) = N#Cc1cccc(C[C@H](N)C(=O)O)c1; Bta = N[C@@H](Cc1csc2ccccc12)C(=O)O; Hyp = O=C(O)[C@@H]1C[C@@H](O)CN1; NMeF = CN[C@@H](Cc1ccccc1)C(=O)O; NMeNle = CCCC[C@H](NC)C(=O)O; NMeM = CN[C@@H](CCSC)C(=O)O; NMeA = CN[C@@H](C)C(=O)O; Dab = NCC[C@H](N)C(=O)O; dAze = O=C(O)[C@H]1CCN1; Dap = NC[C@H](N)C(=O)O; ξC = NC(CS)C(=O)O; Sar = CNCC(=O)O

How the values were obtained:
[1] = molecular target: T1, LK35.2-hPD-L1 cells / PE-labeled PD-1-Ig (Homo sapiens, UniProt Q9NZQ7); test: LK35.2-hPD-L1 cell binding high-content screening assay; type: cell-based
T1 construct: expressed in transfected cells; host or cells: LK35.2 mouse B cell line
Outline: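 Compound effect on PD-1/PD-L1 binding is measured by imaging cell-associated phycoerythrin signal. Human PD-1-Ig (PE on Ig tag, 1 nM final) is applied with compound to a murine B cell line overexpressing human PD-L1 for 1 h at 37 °C in serum-containing RPMI.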

[2] = molecular target: T2, Human PD-L1/PD-1 (Homo sapiens, UniProt Q9NZQ7); test: HTRF PD-1-Ig/PD-L1-His binding assay (human PD-L1)
T2 construct: made in house; host or cells: HEK293T
Outline: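 Interaction of Fc-tagged soluble PD-1 with His-tagged soluble PD-L1 is monitored by time-resolved FRET. Donor is europium cryptate anti-Ig (1 nM final) and acceptor is APC anti-His (20 nM final). Assay buffer is dPBS with 0.1% BSA and 0.05% Tween-20.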

[3] = cell binding assay, cell line not given, cluster symbol, read-out: CBA IC50 cluster
[4] = cluster symbol, read-out: HTRF IC50 cluster
[5] = cluster symbol, cell line of CBA not given (LK35.2-hPD-L1 or 293T-hPD-L1), read-out: CBA IC50 cluster

T2 sequence (Q9NZQ7 with tags, fused parts or gaps): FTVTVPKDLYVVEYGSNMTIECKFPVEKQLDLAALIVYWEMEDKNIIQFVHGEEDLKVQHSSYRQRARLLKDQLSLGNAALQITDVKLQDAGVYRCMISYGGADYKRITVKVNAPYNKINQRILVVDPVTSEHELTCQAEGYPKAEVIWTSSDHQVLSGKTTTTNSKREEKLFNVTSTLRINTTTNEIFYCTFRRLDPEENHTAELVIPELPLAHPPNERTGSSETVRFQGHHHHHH
T1 sequence (Q9NZQ7 19-290): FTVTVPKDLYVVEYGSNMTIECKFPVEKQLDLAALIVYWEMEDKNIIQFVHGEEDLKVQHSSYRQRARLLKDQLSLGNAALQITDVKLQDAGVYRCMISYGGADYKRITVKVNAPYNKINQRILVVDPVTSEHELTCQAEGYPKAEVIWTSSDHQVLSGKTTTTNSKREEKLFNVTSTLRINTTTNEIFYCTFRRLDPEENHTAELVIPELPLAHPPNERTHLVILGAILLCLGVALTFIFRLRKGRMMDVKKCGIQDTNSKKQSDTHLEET

Compound	pIC50 [1, 3]	pIC50 [2, 4]	pIC50 [1, 5]	pIC50 ([1]; cell binding assay, cell line not given, value given instead of cluster, read-out: CBA IC50 value)	pIC50 ([2]; value given instead of cluster, read-out: HTRF IC50 value)
CCCC[C@H]1C(=O)N(C)CC(=O)N[C@@H](CC(=O)O)C(=O)N[C@@H](C(C)C)C(=O)N(C)[C@@H](Cc2ccccc2)C(=O)N[C@@H](Cc2ccc(O)cc2)C(=O)N(C)CC(=O)N[C@@H](Cc2c[nH]c3ccccc23)C(=O)N[C@@H](Cc2ccc(O)cc2)C(=O)N[C@@H](CC(C)C)C(=O)N[C@H](C(=O)NCC(N)=O)CSCC(=O)N[C@@H](Cc2ccc(F)c(Cl)c2)C(=O)N(C)[C@@H](Cc2ccccc2)C(=O)N1C [Example 3567] ({CH2CO}-[X10][NMeF][NMeNle][Sar]DV[NMeF]Y[Sar]WYLCG-NH2; thioether N-13)	8.33 to 9.80	8.17 to 9.41			
CCCC[C@H]1C(=O)N(C)CC(=O)N[C@@H](CC(=O)O)C(=O)N[C@@H](C(C)C)C(=O)N(C)[C@@H](Cc2ccccc2)C(=O)N[C@@H](Cc2ccc(O)cc2)C(=O)N(C)CC(=O)N[C@@H](Cc2c[nH]c3ccccc23)C(=O)N[C@@H](Cc2ccc(O)cc2)C(=O)N[C@@H](CC(C)C)C(=O)N[C@H](C(=O)NCC(N)=O)CSCC(=O)N[C@@H](Cc2ccc(CN)cc2)C(=O)N(C)[C@@H](Cc2ccccc2)C(=O)N1C [Example 3063] ({CH2CO}-[Phe(4-CH2NH2)][NMeF][NMeNle][Sar]DV[NMeF]Y[Sar]WYLCG-NH2; thioether N-13)		< 7.52	< 7.13		
CCCC[C@H]1C(=O)N(C)[C@@H](CCCC)C(=O)N[C@@H](CC(C)C)C(=O)N[C@H](C(=O)NCC(N)=O)CSCC(=O)N[C@@H](Cc2ccc(O)cc2)C(=O)N(C)[C@@H](C)C(=O)N[C@@H](CC(=O)O)C(=O)N2CCC[C@H]2C(=O)N[C@@H](Cc2cnc[nH]2)C(=O)N[C@@H](CC(C)C)C(=O)N2C[C@H](O)C[C@H]2C(=O)N[C@@H](Cc2c[nH]c3ccccc23)C(=O)N[C@@H](CCN)C(=O)N[C@@H](Cc2c[nH]c3ccccc23)C(=O)N1C [Example 6027] ({CH2CO}-Y[NMeA]DPHL[Hyp]W[Dab]W[NMeNle][NMeNle]LCG-NH2; thioether N-14)	8.33 to 9.80	8.17 to 9.41			
CCCC[C@H]1C(=O)N(C)[C@@H](CCCC)C(=O)N[C@@H](CCCNC(=N)N)C(=O)N[C@H](C(=O)NCC(N)=O)CSCC(=O)N[C@@H](Cc2ccc(O)cc2)C(=O)N(C)[C@@H](C)C(=O)N[C@@H](CC(N)=O)C(=O)N2CCC[C@H]2C(=O)N[C@@H](Cc2cnc[nH]2)C(=O)N[C@@H](CC(C)C)C(=O)N2CCC[C@H]2C(=O)N[C@@H](Cc2c[nH]c3ccccc23)C(=O)N[C@@H](CO)C(=O)N[C@@H](Cc2nc3ccccc3s2)C(=O)N1C [Example 1129] ({CH2CO}-Y[NMeA]NPHLPWS[Ala(benzothiazol-2-yl)][NMeNle][NMeNle]RCG-NH2; thioether N-14)		< 7.52	< 7.13		
CCCC[C@H]1C(=O)N[C@@H](CCCNC(=N)N)C(=O)NC(C(=O)NCC(N)=O)CSCC(=O)N[C@@H](Cc2ccc(O)cc2)C(=O)N(C)[C@@H](C)C(=O)N[C@@H](CC(N)=O)C(=O)N2CCC[C@H]2C(=O)N[C@@H](CN)C(=O)N[C@@H](CC(C)C)C(=O)N2CCC[C@H]2C(=O)N[C@@H](Cc2c[nH]c3ccccc23)C(=O)N[C@@H](CO)C(=O)N[C@@H](Cc2csc3ccccc23)C(=O)N(C)[C@@H](CCSC)C(=O)N1C (stereo partly shown) [Example 9090] ({CH2CO}-Y[NMeA]NP[Dap]LPWS[Bta][NMeM][NMeNle]R[ξC]G-NH2; thioether N-14)	8.33 to 9.80	8.17 to 9.41			
CCCC[C@H]1C(=O)N(C)CC(=O)N[C@@H](CC(=O)O)C(=O)N[C@@H](C(C)C)C(=O)N(C)[C@@H](Cc2ccccc2)C(=O)N[C@@H](Cc2ccc(O)cc2)C(=O)N2CC[C@@H]2C(=O)N[C@@H](Cc2c[nH]c3ccccc23)C(=O)N[C@@H](Cc2ccc(O)cc2)C(=O)N[C@@H](CC(C)C)C(=O)N[C@H](C(=O)NCC(N)=O)CSCC(=O)N[C@@H](Cc2ccccc2)C(=O)N(C)[C@@H](Cc2ccccc2)C(=O)N1C [Example 3577] ({CH2CO}-F[NMeF][NMeNle][Sar]DV[NMeF]Y[dAze]WYLCG-NH2; thioether N-13)	8.33 to 9.80	8.17 to 9.41			
CCCC[C@H]1C(=O)N(C)[C@@H](CCCC)C(=O)N[C@@H](CCCNC(=N)N)C(=O)N[C@H](C(=O)NCC(N)=O)CSCC(=O)N[C@@H](Cc2ccc(O)cc2)C(=O)N(C)[C@@H](C)C(=O)N[C@@H](CC(N)=O)C(=O)N2CCC[C@H]2C(=O)N[C@@H](CN)C(=O)N[C@@H](CC(C)C)C(=O)N2C[C@H](O)C[C@H]2C(=O)N[C@@H](Cc2c[nH]c3ccccc23)C(=O)N[C@@H](CC(=O)O)C(=O)N[C@@H](Cc2c[nH]c3ccccc23)C(=O)N1C [Example 5057] ({CH2CO}-Y[NMeA]NP[Dap]L[Hyp]WDW[NMeNle][NMeNle]RCG-NH2; thioether N-14)	7.14 to 8.32	7.52 to 8.17			
CCCC[C@H]1C(=O)N(C)[C@@H](CCCC)C(=O)N[C@@H](CCCNC(=N)N)C(=O)N[C@H](C(=O)NCC(N)=O)C/C=C/C(=O)N[C@@H](Cc2ccc(O)cc2)C(=O)N(C)[C@@H](C)C(=O)N[C@@H](CC(N)=O)C(=O)N2CCCC2C(=O)N[C@@H](CN)C(=O)N[C@@H](CC(C)C)C(=O)N2C[C@H](O)C[C@H]2C(=O)N[C@@H](Cc2c[nH]c3ccccc23)C(=O)N[C@@H](CO)C(=O)N[C@@H](Cc2c[nH]c3ccccc23)C(=O)N1C (stereo partly shown) [Example 7013]	7.14 to 8.32	7.52 to 8.17			
CCCC[C@H]1C(=O)N(C)[C@@H](CCCC)C(=O)N[C@@H](CCCNC(=N)N)C(=O)N[C@H](C(=O)NCC(N)=O)CSCC(=O)N[C@@H](Cc2cc(F)cc(F)c2)C(=O)N(C)[C@@H](C)C(=O)N[C@@H](CC(N)=O)C(=O)N2CCC[C@H]2C(=O)N[C@@H](CN)C(=O)N[C@@H](CC(C)C)C(=O)N2C[C@H](O)C[C@H]2C(=O)N[C@@H](Cc2c[nH]c3ccccc23)C(=O)N[C@@H](CO)C(=O)N[C@@H](Cc2c[nH]c3ccccc23)C(=O)N1C [Example 7043] ({CH2CO}-[Phe(3,5-F2)][NMeA]NP[Dap]L[Hyp]WSW[NMeNle][NMeNle]RCG-NH2; thioether N-14)	7.14 to 8.32	7.52 to 8.17			
CCCC[C@H]1C(=O)N(C)[C@@H](CCCC)C(=O)N[C@@H](CCCNC(=N)N)C(=O)N[C@H](C(=O)NCC(N)=O)CSCC(=O)N[C@@H](Cc2cccc(C#N)c2)C(=O)N(C)[C@@H](C)C(=O)N[C@@H](CC(N)=O)C(=O)N2CCC[C@H]2C(=O)N[C@@H](CN)C(=O)N[C@@H](CC(C)C)C(=O)N2C[C@H](O)C[C@H]2C(=O)N[C@@H](Cc2c[nH]c3ccccc23)C(=O)N[C@@H](CO)C(=O)N[C@@H](Cc2c[nH]c3ccccc23)C(=O)N1C [Example 7037] ({CH2CO}-[Phe(3-CN)][NMeA]NP[Dap]L[Hyp]WSW[NMeNle][NMeNle]RCG-NH2; thioether N-14)	7.14 to 8.32	7.52 to 8.17			
CCCC[C@H]1C(=O)N(C)CC(=O)N[C@@H](CC(=O)O)C(=O)N[C@@H](C(C)C)C(=O)N(C)[C@@H](Cc2ccccc2)C(=O)N[C@@H](Cc2ccc(O)cc2)C(=O)N(C)CC(=O)N[C@@H](Cc2ccc(CN)cc2)C(=O)N[C@@H](Cc2ccc(O)cc2)C(=O)N[C@@H](CC(C)C)C(=O)N[C@H](C(=O)NCC(N)=O)CSCC(=O)N[C@@H](Cc2ccccc2)C(=O)N(C)[C@@H](Cc2ccccc2)C(=O)N1C [Example 3513] ({CH2CO}-F[NMeF][NMeNle][Sar]DV[NMeF]Y[Sar][Phe(4-CH2NH2)]YLCG-NH2; thioether N-13)	< 7.13	< 7.52			
CCCC[C@H]1C(=O)N(C)CC(=O)N[C@@H](CCN)C(=O)N[C@@H](C(C)C)C(=O)N(C)[C@@H](Cc2ccccc2)C(=O)N[C@@H](Cc2ccc(O)cc2)C(=O)N(C)CC(=O)N[C@@H](Cc2c[nH]c3ccccc23)C(=O)N[C@@H](Cc2ccc(O)cc2)C(=O)N[C@@H](CC(C)C)C(=O)N[C@H](C(=O)NCC(N)=O)CSCC(=O)N[C@@H](Cc2ccccc2)C(=O)N(C)[C@@H](Cc2ccccc2)C(=O)N1C [Example 3153] (HELM PEPTIDE1{[O=C(C[*:3])[*:2]].F.[meF].[CCCC[C@@H](C(=O)[*:2])N(C)[*:1]].[Sar].[Dab].V.[meF].Y.[Sar].W.Y.L.C.G.[am]}$PEPTIDE1,PEPTIDE1,1:R3-14:R3$$$V2.0)		7.52 to 8.17	7.14 to 8.32		
CCCC[C@H]1C(=O)N(C)[C@@H](CCCC)C(=O)N[C@@H](CCN)C(=O)N[C@H](C(=O)NCC(N)=O)CSCC(=O)N[C@@H](Cc2ccc(O)cc2)C(=O)N(C)[C@@H](C)C(=O)N[C@@H](CCN)C(=O)N2CCC[C@H]2C(=O)N[C@@H](Cc2c[nH]cn2)C(=O)N[C@@H](CCC(=O)O)C(=O)N2C[C@H](O)C[C@H]2C(=O)N[C@@H](Cc2c[nH]c3ccccc23)C(=O)N[C@@H](C(C)C)C(=O)N[C@@H](Cc2c[nH]c3ccccc23)C(=O)N1C [Example 5091] ({CH2CO}-Y[NMeA][Dab]PHE[Hyp]WVW[NMeNle][NMeNle][Dab]CG-NH2; thioether N-14)	7.14 to 8.32	7.52 to 8.17			
CCCC[C@H]1C(=O)N(C)[C@@H](CCCC)C(=O)N[C@@H](CCCNC(=N)N)C(=O)N[C@H](C(=O)NCC(N)=O)CSCC(=O)N[C@@H](Cc2ccccc2)C(=O)N(C)[C@@H](C)C(=O)N[C@@H](CC(N)=O)C(=O)N2CCC[C@H]2C(=O)N[C@@H](Cc2cnc[nH]2)C(=O)N[C@@H](Cc2c[nH]c3ccccc23)C(=O)N(C)CC(=O)N[C@@H](Cc2c[nH]c3ccccc23)C(=O)N[C@@H](CO)C(=O)N[C@@H](Cc2c[nH]c3ccccc23)C(=O)N1C [Example 6009] ({CH2CO}-F[NMeA]NPHW[Sar]WSW[NMeNle][NMeNle]RCG-NH2; thioether N-14)				6.80	7.16
